This is an account of results in ChEMBL document CHEMBL1135945, “CoMFA and HQSAR of acylhydrazide cruzain inhibitors” (Bioorg Med Chem Lett, 2002).

pIC50: −log10 of the molar value.

In the test the target is Cruzipain (Trypanosoma cruzi, UniProt P25779). As to the kind of experiment: Inhibition of cruzain, the major cysteine protease from Trypanosoma cruzi.
Chain of Cruzipain (P25779 whole entry): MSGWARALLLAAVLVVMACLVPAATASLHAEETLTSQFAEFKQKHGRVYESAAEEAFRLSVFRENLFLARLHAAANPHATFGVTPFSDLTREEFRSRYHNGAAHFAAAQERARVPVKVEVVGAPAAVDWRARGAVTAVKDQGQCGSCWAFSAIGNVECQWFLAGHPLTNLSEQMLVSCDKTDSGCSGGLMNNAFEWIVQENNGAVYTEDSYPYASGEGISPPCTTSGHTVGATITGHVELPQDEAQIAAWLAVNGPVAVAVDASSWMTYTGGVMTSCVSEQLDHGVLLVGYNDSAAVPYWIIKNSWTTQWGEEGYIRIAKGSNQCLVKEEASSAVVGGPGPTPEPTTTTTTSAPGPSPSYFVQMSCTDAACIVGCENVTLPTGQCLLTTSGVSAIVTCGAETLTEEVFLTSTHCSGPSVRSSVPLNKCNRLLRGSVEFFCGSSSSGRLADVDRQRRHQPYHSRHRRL

The pIC50 is the IC50 on a negative log10 scale, so that one unit is a factor of ten. Lower therefore signals a large IC50. In turn, `O=C(N/N=C/c1ccc([N+](=O)[O-])o1)c1cccc([N+](=O)[O-])c1` showed a pIC50 of 5.30.
For `O=C(N/N=C/c1ccc(C(=O)O)o1)c1cccc([N+](=O)[O-])c1`, the pIC50 was 3.48.
Take `O=C(N/N=C/c1ccc([N+](=O)[O-])o1)c1cc2ccccc2cc1O`: the pIC50 is 5.22.
Regarding `COc1ccc(C(=O)N/N=C/c2ccoc2)c(OC)c1`, the pIC50 was 3.78.
To `CN(C)c1ccc(/C=N/NC(=O)c2ccc(O)c(O)c2)c2ccccc12` belongs 4.79.
Take `O=C(N/N=C/c1ccc(-c2ccccc2[N+](=O)[O-])o1)c1ccccc1O`: the negative-log IC50 (pIC50) was 4.70.
To `O=C(N/N=C/c1ccnc2ccccc12)c1ccccc1O` belongs 4.52; to `CN(C)c1ccc(/C=N/NC(=O)c2ccnc3ccccc23)c2ccccc12`, 5.22; to `COc1cc(OC)cc(C(=O)N/N=C/c2ccc(C(=O)O)o2)c1`, 5.00.
The figure for `O=C(N/N=C/c1ccc(-c2cccc([N+](=O)[O-])c2)o1)c1ccc2ccccc2c1` is 5.22; for `O=C(N/N=C/c1ccc(-c2ccc(Cl)cc2)o1)c1ccccc1O` it is 4.00; for `O=C(N/N=C/c1cc(Br)cs1)c1cnc2ccccc2c1` it is 4.52.
To `O=C(N/N=C/c1ccc(-c2ccccc2Cl)o1)c1cc2ccccc2cc1O` belongs 6.22.
In turn, `CN(C)c1ccc(/C=N/NC(=O)c2ccccc2)c2ccccc12` gave a pIC50 of 6.30.
To `COc1ccc2cc(O)c(C(=O)N/N=C/c3ccc(-c4cc(C(F)(F)F)nn4C)s3)cc2c1` belongs 6.70; to `CSc1ccc(/C=N/NC(=O)c2cccc(C)c2O)s1`, 5.00.
